{
  "source": "paper PMC8800111",
  "about": "(The Journal of Biological Chemistry, 2021)",
  "key": {"[1]": {"system": "STAT3 transcriptional activity in U3A cells", "assay": "STAT3-dependent luciferase reporter assay", "format": "cell-based, human", "protocol": "STAT3-dependent luciferase activity was then used as a measure of STAT3 transcriptional activity.\n(§1) Cells were stimulated with 10 ng/ml interleukin 6 (Peprotech) or 10 ng/ml OSM (Peprotech). Cells were stimulated for 15 min for whole cell lysate immunoblotting, 60 to 90 min for qRT–PCR, and 5 to 6 h for luciferase reporter assays.\nU3A cells (3 × 10^3) were plated in white opaque 96-well plates and allowed to adhere overnight. For siRNA-mediated knockdown, cells were left in the incubator for 48 h. For drug-mediated inhibition, cells were pretreated with compound for 1 h. Cells were then stimulated with cytokine for 5 to 6 h to activate STAT3. Luciferase activity was detected using the Bright-Glo Luciferase Assay System (Promega) and quantitated using a Luminoskan Ascent Microplate Reader (Labsystems)."}, "[2]": {"system": "STAT3 target genes in U3A cells", "assay": "STAT3 target gene expression by qRT-PCR in U3A cells", "format": "cell-based, human"}, "[3]": {"system": "STAT3 target genes in SKBR3 cells", "assay": "STAT3 target gene expression by qRT-PCR in SKBR3 cells", "format": "cell-based, human", "conditions": "300 μg/ml folinic acid", "protocol": "as §1\nTotal RNA was extracted from cells using the RNeasy Mini Kit (Qiagen). Complementary DNA was generated using the TaqMan Reverse Transcription Reagents (Invitrogen). qPCR was performed in triplicate or quadruplicate using the Power SYBR Green PCR Master Mix (Invitrogen) on a 7500 Real-Time PCR System (Applied Biosystems) or a QuantStudio 6 Flex Real-Time PCR System (Applied Biosystems). Specificity of amplification was confirmed by melting curve analysis. Cycle threshold (CT) values for target genes were normalized to the endogenous reference gene GAPDH. Primer sequences (Table S3) were designed from the University of California Santa Cruz genome browser reference mRNA sequences using Primer3 ([43])."}, "MDA-MB-468 cells": {"system": "MDA-MB-468 cells", "assay": "Viability assay (CellTiter-Glo, number of viable cells)", "format": "cell-based, human", "conditions": "300 μg/ml folinic acid, 48 h", "protocol": "We specifically hypothesized that folinic acid would prevent pyrimethamine-mediated loss of viability and loss of STAT3 transcriptional activity by bypassing DHFR and restoring the folate-dependent processes required for STAT3 transcriptional activity. […] Since MDA-MB-468 cells are dependent on STAT3 activity for survival, loss of viability can reflect STAT3 inhibition.\nCells (3–5 × 10^3) were plated in white opaque 96-well plates. The next day, cells were treated as indicated. ATP levels were detected at the indicated time points as a proxy for number of viable cells using the CellTiter-Glo Luminescent Cell Viability Assay (Promega). Luminescence was measured using a Luminoskan Ascent Microplate Reader (Labsystems)."}, "[4]": {"system": "STAT3 target genes in MDA-MB-468 cells", "assay": "STAT3 target gene expression by qRT-PCR in MDA-MB-468 cells", "format": "cell-based, human", "conditions": "MDA-MB-468, 10 μM, 24 h"}, "[5]": {"assay": "Solubility limit of folic acid in cell experiments", "format": "physicochemical", "conditions": "culture media; read-out: maximum concentration testable because of solubility limitations"}, "[6]": {"system": "pSTAT3 in MDA-MB-468 cells", "assay": "STAT3 tyrosine phosphorylation by immunoblotting", "format": "cell-based, human", "conditions": "24 h, immunoblot"}, "[7]": {"system": "polar metabolites of MDA-MB-468 cells", "assay": "LC/MS-based metabolite profiling", "format": "cell-based, human", "conditions": "MDA-MB-468, 24 h, 10 μM pyrimethamine or 0.05 μM methotrexate"}},
  "data": [
    {"smiles": "Nc1nc(=O)c2c([nH]1)NCC(CNc1ccc(C(=O)N[C@@H](CCC(=O)O)C(=O)O)cc1)N2C=O", "note": "(mixture of isomers) [folinic acid]", "values": [
      {"measurement": "rescue of the effect of methotrexate on STAT3-dependent luciferase", "setting": "[1]; 1 μM methotrexate", "result": "able to rescue"},
      {"measurement": "effect on TG101-mediated loss of STAT3-dependent luciferase", "setting": "[1]; 10 μM TG101", "result": "no effect"},
      {"measurement": "effect on the ability of pyrimethamine to inhibit OSM-stimulated STAT3 transcriptional activity", "setting": "[1]; 10 μM pyrimethamine, tested concentrations of folate", "result": "significantly reduced"},
      {"measurement": "effect on pyrimethamine-mediated loss of OSM-stimulated BCL6 expression", "setting": "[2]; 300 μg/ml folinic acid", "result": "completely prevented"},
      {"measurement": "effect on pyrimethamine-mediated loss of OSM-stimulated BCL6 expression", "setting": "[3]", "result": "partially prevented"},
      {"measurement": "effect on TG101-dependent loss of viable cells", "setting": "MDA-MB-468 cells", "result": "very little effect"},
      {"measurement": "effect on pyrimethamine-dependent and methotrexate-dependent decreases in the number of viable cells", "setting": "MDA-MB-468 cells", "result": "almost completely prevented"}
    ]},
    {"smiles": "Cc1cnc(Nc2ccc(OCCN3CCCC3)cc2)nc1Nc1cccc(S(=O)(=O)NC(C)(C)C)c1", "note": "[TG101, TG101348]", "values": [
      {"measurement": "SOCS3 expression in the presence of folinic acid", "setting": "[4]; 300 μg/ml folinic acid", "result": "still reduced"},
      {"measurement": "SOCS3 expression in the absence of folinic acid", "setting": "[4]", "result": "significantly reduced"}
    ]},
    {"smiles": "Nc1nc2ncc(CNc3ccc(C(=O)N[C@@H](CCC(=O)O)C(=O)O)cc3)nc2c(=O)[nH]1", "note": "[folic acid]", "values": [
      {"measurement": "solubility", "setting": "[5]", "result": 10, "unit": "µg/mL"}
    ]},
    {"smiles": "CN(Cc1cnc2nc(N)nc(N)c2n1)c1ccc(C(=O)N[C@@H](CCC(=O)O)C(=O)O)cc1", "note": "[methotrexate]", "values": [
      {"measurement": "OSM-stimulated STAT3 activity (luciferase)", "setting": "[1]; 0.5 and 1 μM, 1 h pretreatment, OSM 5 h", "result": "decreased"},
      {"measurement": "OSM-stimulated expression of BCL6 and STAT3", "setting": "[2]; 1 μM 1 h, 10 ng/ml OSM 90 min", "result": "significantly reduced"},
      {"measurement": "total / constitutive STAT3 tyrosine phosphorylation (pSTAT3)", "setting": "[6]", "result": "decrease"},
      {"measurement": "deoxyuridine monophosphate level compared with DMSO or ruxolitinib", "setting": "[7]", "result": "significantly accumulated"},
      {"measurement": "purine synthesis intermediates 5-aminoimidazole-4-carboxamide ribonucleotide and glycineamide ribonucleotide", "setting": "[7]", "result": "significant increase"}
    ]},
    {"smiles": "Cc1cn([C@H]2C[C@H](O)[C@@H](CO)O2)c(=O)[nH]c1=O", "note": "[thymidine]", "values": [
      {"measurement": "effect on pyrimethamine inhibition of STAT3 transcriptional activity (viable cells, luciferase, target genes)", "setting": "[1]; thymidine added with 10 μM pyrimethamine", "result": "reduced the ability"},
      {"measurement": "rescue of methotrexate-mediated loss of STAT3 activity", "setting": "[1]; thymidine added with methotrexate", "result": "unable to rescue"}
    ]}
  ]
}
